Data as given in patent US9457093B2, “Solid dispersions of a ERB2 (HER2) inhibitor” (Array BioPharma Inc., priority 2011, dated 2016).

Assay: Dissolution testing at pH 6.5 in phosphate buffer at 37° C.
Format: physicochemical
Conditions: pH 6.5 phosphate buffer, about 240 minutes
Method: Dissolution testing was performed at a pH of 6.5 in phosphate buffer. The solid dispersion was suspended in H2O and added directly to the buffer solution at 37° C. The dissolution profile was collected over a period of about 240 minutes. The results are in FIG. 2.
Dissolution testing was performed at a pH of 6.5 in phosphate buffer. The solid dispersion was suspended in H2O and added directly to the buffer solution at 37° C. The dissolution profile was collected over a period of about 240 minutes. The results are in FIG. 3.
Dissolution testing was performed at a pH of 6.5 in phosphate buffer. The solid dispersion was suspended in H2O and added directly to the buffer solution at 37° C. The dissolution profile was collected over a period of about 240 minutes. The results are in FIG. 4.
Dissolution testing was performed at a pH of 6.5 in phosphate buffer. The solid dispersion was suspended in H2O and added directly to the buffer solution at 37° C. The dissolution profile was collected over a period of about 240 minutes. The results are in FIG. 5.
Dissolution testing was performed at a pH of 6.5 in phosphate buffer. The solid dispersion was suspended in H2O and added directly to the buffer solution at 37° C. The dissolution profile was collected over a period of about 240 minutes. The results are in FIG. 6.
Dissolution testing was performed at a pH of 6.5 in phosphate buffer. […]

Cc1cc(Nc2ncnc3ccc(NC4=NC(C)(C)CO4)cc23)ccc1Oc1ccn2ncnc2c1 [Example 12, N4-(4-([1,2,4]triazolo[1,5-α]pyridin-7-yloxy)-3-methylphenyl)-N6-(4,4-dimethyl-4,5-dihydrooxazol-2-yl)quinazoline-4,6-diamine freebase hemi-ethanolate]
AUC for the free drug species: 5490 ng·h/mL
Cmax for the free drug species: 440 ng/mL
